The assay concerns isolated leukemia cells from patients with CLL. In words: qPCR analysis of gene expression in isolated leukemia cells. The format is cell-based, human. Conditions: 6 hours. The method, then:
Isolated leukemia cells from patients with CLL were incubated with EC-7072 (200 nM) or DMSO for 6 hours. Total RNA was extracted using RNeasy Mini Kit (Qiagen). 2 µg total RNA were used for cDNA synthesis using High-Capacity cDNA Reverse Transcription Kit (Applied Biosystems). Quantitative RT-PCR was performed using SYBR Green PCR Master Mix (Applied Biosystems) in a 7300 Real-Time PCR System and each sample was analyzed in triplicate. Table 1. Primers used in qPCR
Expression of BCR-related genes was analyzed by qPCR in isolated CLL leukemia cells (n = 6) exposed to 200 nM EC-7072 for 6 hours (Figure 6A).
Expression of relevant genes that regulate apoptosis in CLL was analyzed by qPCR in isolated leukemia cells from patients with CLL (n = 6) exposed to 200 nM EC-7072 for 6 hours, to obtain the mean relative expression to the control (DMSO) control condition (Figure 6D).
The dysregulation of BCL2 expression in primary CLL by EC-7072 was evaluated by: • (i) incubating isolated CLL cells (n = 6) from patients with CLL following treatment with EC-7072 (200 nM) for 6 hours and extracting total RNA. Relative expression of BLC2 was determined by qPCR to obtain the mean relative expression to the control (DMSO) condition (Figure 6F); • (ii) incubating isolated CLL cells (n = 6) following treatment with 200 nM EC-7072 for 12 and 18 hours. BCL2 levels were evaluated by intracellular flow cytometry (Figure 6G); • (iii) incubating isolated T cells (n = 3) from patients with CLL following treatment with EC-7072 (200 nM) for 6 hours and extracting total RNA. Relative expression of BLC2 was determined by qPCR to obtain the mean relative expression to the control (DMSO) condition (Figure 6H); • (iv) incubating PBMCs (Figure 6I) and isolated T cells (Figure 6J) from patients with CLL (n = 3) following treatment with 200 nM EC-7072 for 24 hours. T-cell death and apoptosis were assessed by DiOC6(3)/PI staining to obtain percentages of viable [DiOC6(3)^+] cells and the mean percentages of apoptotic [DiOC6(3)^low PI^-] and dead [PI^+] cells. […]
(In qPCR the cycle at which signal appears reflects the starting amount.)

Regarding `CO[C@@H]([C@@H]1Cc2cc3cc(O[C@H]4C[C@@H](O[C@H]5C[C@@H](O)[C@H](O)[C@@H](C)O5)[C@H](O)[C@@H](C)O4)c(C)c(O)c3c(O)c2C(=O)[C@H]1O[C@H]1C[C@@H](O[C@H]2C[C@@H](O[C@H]3C[C@](C)(O)[C@H](O)[C@@H](C)O3)[C@@H](O)[C@@H](C)O2)[C@H](O)[C@@H](C)O1)[C@@H](O)C(C)=O` [EC-7072, mithramycin SK], the “expression of genes required for functional BCR signaling (CD79B, SYK, LYN, PIK3CD, PLCG2, CARD11)” value (200 nM, RNA-seq, validated by qPCR (n = 6)) was “broad downregulation”. Under “200 nM, isolated CLL cells (n = 6)”, the “gene expression of BCL2” value is listed as “significantly downregulated”. Also, the “expression of BCL2 upon BCR activation” value (EC-7072 200 nM in combination with α-IgM (10 µg/mL), n = 4) was “restore the expression of BCL2 to basal levels”.

(Values after patent EP3797781A1, “USE OF EC-7072 AND SYNERGIC COMPOSITIONS THEREOF IN TREATMENT OF CHRONIC LYMPHOCYTIC LEUKEMIA” (priority 2019, dated 2021).)
